Reference: patent publication US20070167526A1, “Topical mecamylamine formulations for ocular administration and uses thereof” (priority 2005, published 2007)
Where a name gives a salt, the structure may show the parent alone. One block for each molecule: values may come before it.

Assays:
[1] = Ocular bioavailability following intravenous administration (Example 2); assay type: in vivo, New Zealand White rabbit; conditions: rabbit
Description: This study was designed to model the ocular bioavailability of mecamylamine when administered systemically. Rabbit eyes are the preferred model for in vivo modeling of ocular drugs, however, the rabbit is not the subject of choice for modeling oral bioavailability. However, systemic administration does emulate orally administered mecamylamine to a reasonable approximation since mecamylamine has rapid absorption and high oral bioavailability. Therefore, intravenous injection was used to model ocular bioavailability of mecamylamine administered systemically, in order to determine the deposition of mecamylamine to the plasma, vitreous and posterior tissues (retina/choroid) of the eye from the blood.
The study comprised 2 groups (each N=6, 12 rabbits total) of male NZW (New Zealand White) rabbits weighing approximately 2.5-3 kg and obtained from Kralek Farms (Turlock, Calif.). Mecamylamine solution, prepared as described in Example 1, at a dose of 15 mg/kg was delivered via i.v. infusion as either a short infusion (1 hr) or slow infusion (6 hr) in rabbits sedated by ketamine/xylazine, with the slow infusion intended to model controlled systemic release of the mecamylamine.
For both groups, samples of the vitreous(≧0.1 ml) and plasma were withdrawn at 6 time points: pre-dose, 30 min, 1, 2, 4, and 6 hr. At 6 hours, all animals were sacrificed and vitreous and retinal tissues were collected. The total amount of mecamylamine administered during each infusion was the same, based on the weight of the individual rabbit.
The concentrations of mecamylamine present in the various samples were analyzed as described in Example 6, below.

[2] = system: eyes of New Zealand White rabbits; assay: Pupil diameter, pupillary response and mortality observations after topical ocular instillation in rabbits (Example 10); conditions: rabbit, in vivo
Protocol: The objective of this study was to evaluate the ocular pharmacokinetics of a 2% Mecamylamine in a GELRITE solution up to 6 hours following topical instillation into the eyes of New Zealand White rabbits. Nine New Zealand White female rabbits of minimum age of 9 weeks and weight 2-3 kg were obtained from The Rabbit Source (Ramona, Calif.) were used in the study.
On day 1, 2 drops of 50 μL of mecamylamine or vehicle were administered topically into the appropriate eye(s) of each animal as described in Table 13. The time of each dose administration was recorded.

endothelial nAChRs = conditions: in vitro; endothelial cells; cited from earlier work
in vivo = conditions: rabbit, in vivo
Protocol: As used herein, the term “topically administered to a rabbit eye,” and cognates thereof, refers to the administration of a particular mecamylamine formulation, including formulations of pharmaceutically acceptable salts of mecamylamine, by applying 100 μL of the mecamylamine formulation to the cornea of each eye (2 drops of 50 μL each), wherein at the time of application the bottom eyelid is separated from the surface of the eye to make a pocket to ensure the entire dose is retained in contact with the eye. When the concentration of mecamylamine in plasma and in the retinal/choroidal tissue is to be measured in connection with the calculation of the ratio of the mecamylamine concentration in the retina/choroid versus the concentration of mecamylamine in plasma, the concentration of each is determined 1 hour after application of the formulation. The amount of mecamylamine present in plasma and the retina/choroid is determined by LC/MS/MS using internal standards of dextromethorphan and diphenhydramine and a standard of known concentration of mecamylamine. An exemplary method of administration of the topical formulation of mecamylamine is provided in Example 5. An exemplary LC/MS/MS method for determining the ratios described herein is given in detail in Example 6. When the mean maximum concentration of mecamylamine in plasma is to be determined, the concentration is again determined as described above and in Example 6. The term “mean maximum concentration of mecamylamine,” and its cognates, as used herein refers to the mean maximum concentration of mecamylamine measured in plasma when monitored over a 6 hour time period after administration of the formulation. When the mean total concentration of mecamylamine in plasma is to be determined, the concentration is again determined as described above and in Example 6. The term “total concentration of mecamylamine in plasma measured as the area under the curve,” (AUC) and cognates thereof, refers to summation of the areas under plot of the drug plasma versus time using a simple trapezoidal method with drug plasma time points taken to include 1, 3 and 6 hours after topical administration. Determination of AUC for corneal tissue, retinal/choroid tissue and aqueous humor is determined similarly. When the concentration of mecamylamine in plasma and in the corneal tissue is to be measured in connection with the calculation of the ratio of the mecamylamine concentration in the cornea (or aqueous humor) versus the concentration of mecamylamine in plasma, the concentration of each is determined 1 hour after application of 50 μl of the formulation. The amount of mecamylamine present in plasma and the cornea (or aqueous humor) is determined by LC/MS/MS using internal standards of dextromethorphan and diphenhydramine and a standard of known concentration of mecamylamine. An exemplary method of administration of the topical formulation of mecamylamine is provided in Example 5. An exemplary LC/MS/MS method for determining the ratios described herein is given in detail in Example 6.
A single dose of a polymer-free solution, gellan gum formulation and hypromellose formulation containing 3% mecamylamine hydrochloride, was instilled in the eyes of rabbits (Dutch-belted male rabbits (Convance, Denver, Pa.) minimum age 2 months and with weights of 1.6 to 1.8 kg). Two animals were euthanized 30 minutes, 1 hour or 3 hours after dosing.
Sample of blood and ocular tissue (obtained as described in previous examples) were analyzed for mecamylamine concentration using an LC MS/MS method up to 3 hours after dosing.
The area-under-the-curve (AUC) was calculated using a trapezoidal rule on a population pharmacokinetic basis (see Table 9).

Molecule: CNC1(C)C2CCC(C2)C1(C)C (stereo not shown) [mecamylamine hydrochloride]
mean maximum concentration of mecamylamine in plasma ([1]; long i.v. infusion (FIG. 2)): greater than 500 ng/mL
mean maximum concentration of mecamylamine in plasma ([1]; short i.v. administration (FIG. 1)): > 1500 ng/mL
pupil diameter and pupil diameter response to light (mydriasis) [2]: did not result in significant changes in pupil diameter or pupil diameter response to light

Molecule: CN1CCCC1c1cccnc1 (stereo not shown) [nicotine]
concentrations at which the maximal effect of nicotine occurs (endothelial nAChRs): 10 to 100 nM

Aqueous Humor AUC (in vivo): 7,355 ng/mL*hr
Cornea AUC (in vivo): 114000 ng·h/g
Plasma AUC (in vivo): 61 ng·h/mL
Ratio Aqu H:plasma (AUC) (in vivo): 120
Ratio Cornea:Plasma (AUC) (in vivo): 1,868:1
Ratio Retina/Choroid:Plasma (AUC) (in vivo): 291:1
Retina/Choroid AUC (in vivo): 17800 ng·h/g
Mecamylamine AUC, Anterior sclera (in vivo; topical or ocular): 32790 ng·h/g
Mecamylamine AUC, Aqueous humor (in vivo; topical or ocular): 7355 ng·h/mL
Mecamylamine AUC, Conjunctiva (in vivo; topical or ocular): 114398 ng·h/g
Mecamylamine AUC, Cornea (in vivo; topical or ocular): 113938 ng·h/g
Mecamylamine AUC, Extraocular muscle (in vivo; topical or ocular): 31236 ng·h/g
Mecamylamine AUC, Iris-ciliary body (in vivo; topical or ocular): 114813 ng·h/g
Mecamylamine AUC, Lens (in vivo; topical or ocular): 1064 ng·h/g
Mecamylamine AUC, Optic Nerve (in vivo; topical or ocular): 11515 ng·h/g
Mecamylamine AUC, Posterior sclera (in vivo; topical or ocular): 23638 ng·h/g
Mecamylamine AUC, Retina/Choroid (in vivo; topical or ocular): 17804 ng·h/g
Mecamylamine AUC, Vitreous humor (in vivo; topical or ocular): 335 ng·h/mL
Molecule: HPMC
